In ChEMBL document CHEMBL3217544, “Evaluation of two cyclic di-peptides as inhibitors of CCL2 induced chemotaxis” (Medchemcomm, 2013) one finds inhibition data, which are given here for two molecules.

The source made the active and inactive calls. No cut-off for these calls is given here.

Assay [1] concerns the target C-C motif chemokine 2 (Homo sapiens) (UniProt P13500). In words: Inhibition of CCL2 in human THP1 cells assessed as reduction of cell migration at 50 uM after 3 hrs. Type of assay: cell-based. The settings on record: THP-1.
Assay [2] has the same target. In words: Inhibition of CCL2 in human THP1 cells assessed as reduction of cell migration at 100 uM after 3 hrs. The class given is cell-based. The following applies: THP-1.
The target is the same in assay [3]. In words: Inhibition of CCL2 in human THP1 cells assessed as effect on level of ERK1/2 phosphorylation at 50 uM after 5 mins by Western blot analysis. The settings on record: THP-1. Type of assay: cell-based. For orientation: A western blot detects proteins with antibodies after separation by electrophoresis.
Assay [4] shares this target. In words: Inhibition of CCL2 in human THP1 cells assessed as reduction of cell migration into TNFalpha/IFNgamma-stimulated HMEC-1 cells at 50 uM after 4 hrs. The settings on record: THP-1. The class given is cell-based.
The target is the same in assay [5]. In words: Inhibition of CCL2 in human PBMC assessed as reduction of cell migration into TNFalpha/IFNgamma-stimulated HMEC-1 cells at 50 uM after 4 hrs. Type of assay: cell-based.
Assay [6] concerns the target T1, C-C motif chemokine 5 (Homo sapiens) (UniProt P13501).
T1 sequence (whole entry): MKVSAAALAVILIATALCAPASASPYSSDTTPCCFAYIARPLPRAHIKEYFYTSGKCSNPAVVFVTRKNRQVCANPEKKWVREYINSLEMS
Put plainly: Inhibition of CCL5 in human THP1 cells assessed as reduction of cell migration at 50 uM after 3 hrs. Type of assay: cell-based. The settings on record: THP-1.

Assay [7] concerns the target C-C motif chemokine 2 (Homo sapiens) (UniProt P13500). In words: Inhibition of CCL2 in human PBMC assessed as reduction of cell adhesion to VCAM1-Fc at 50 uM by flow based adhesion assay.
The target of assay [8] is C-C motif chemokine 7 (Homo sapiens) (UniProt P80098). Put plainly: Inhibition of CCL7 in human THP1 cells assessed as reduction of cell migration at 50 uM after 3 hrs. The settings on record: THP-1. Type of assay: cell-based.
Chain of C-C motif chemokine 7 (Homo sapiens) (P80098 whole entry): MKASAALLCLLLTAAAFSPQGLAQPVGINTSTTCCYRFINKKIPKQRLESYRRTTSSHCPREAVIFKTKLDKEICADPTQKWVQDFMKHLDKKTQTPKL

Chain of C-C motif chemokine 2 (Homo sapiens) (P13500 24-99 limits assumed): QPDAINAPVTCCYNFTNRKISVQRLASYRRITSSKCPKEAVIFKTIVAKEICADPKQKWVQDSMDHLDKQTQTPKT

By inhibition is commonly meant the relative decrease from the control value, in per cent. As for `O=C1N[C@@H](Cc2ccccc2)C(=O)N2CCC[C@@H]12`, the inhibition entry in assay [1], in assay [2] and in assay [5] was “Active” each time. Further, the inhibition entry in assay [3] is “inactive”. Also, the inhibition in assay [4] was determined as 50%.
Consider `O=C1N[C@@H](Cc2ccc(F)cc2)C(=O)N2CCC[C@@H]12`, for which the inhibition came out at 40% in assay [1], 35% in assay [7] and 70% in assay [4]. Moreover, the inhibition entry in assay [2] and in assay [5] was “Active” throughout. Further, the inhibition result in assay [6], in assay [3] and in assay [8] was “inactive” in each case.
